Measured values published in PMC2362811, “In vivo efficacy of XR9051, a potent modulator of P-glycoprotein mediated multidrug resistance” (British Journal of Cancer, 1999).
Read-outs that look alike come from different tables or passages of the source.

Key:
[1] = test system: 2780AD ovarian carcinoma xenografts; format: in vivo
[2] = test system: murine and human P-gp-expressing cell lines; set-up: method as in Dale et al, 1998; details: co-exposure, several murine and human P-gp-expressing cell lines; ref Dale et al, 1998; cited from earlier work
[3] = test system: MC26 cells; experiment: In vitro sensitization of MC26 cells to doxorubicin; format: cell-based, mouse; details: 500 nM XR9051, in vitro (unpublished data)
[4] = test system: MC26 murine colon carcinoma; format: in vivo
[5] = in vivo; format: in vivo; set-up: maximum concentration in tumour tissue / maximum concentration in tumour tissue (molar) / concentrations in H69/LX4 MDR tumours over a 25 h period: unit not given here
[6] = test system: H69/LX small cell lung carcinoma xenografts; format: in vivo
[7] = Plasma levels of XR9051 after single oral dose in Balb/c mice; format: in vivo; details: mouse
[8] = test system: P388/P-sensitive murine leukaemia; experiment: In vivo efficacy, P388/P sensitive murine leukaemia model (survival); set-up: species or system mouse; details: for lifespan of tumour-bearing animals vs vehicle alone: vincristine 0.1 mg kg-1 i.p. days 1-5 or doxorubicin 2 mg kg-1 i.p. days 1, 4 and 7, P < 0.005
[9] = test system: P388/DX Johnson murine leukaemia; details: for survival of resistant leukaemia-bearing mice, combination vs cytotoxic drug alone: days 1-5, P < 0.01; for survival, cytotoxic drug in the absence of XR9051: P388/DX Johnson-resistant leukaemia-bearing mice, cytotoxic drug alone
[10] = Pharmacokinetics of XR9051 after single i.v. dose in Balb/c mice (plasma, liver, heart, brain; HPLC); format: in vivo, mouse; details: for half-life: two-compartment model
[11] = test system: CH1/DOXr ovarian carcinoma xenografts; format: in vivo; details: for tumour growth rate compared with either drug alone: P < 0.01
[12] = test system: P388 cells transfected with the human MDR1 gene; details: ref Yang et al, 1994; cited from earlier work
[13] = test system: P388/DX Johnson cells; details: the cell line used in our studies
[14] = single i.v. 20 mg kg-1, H69/LX4 SCLC xenograft-bearing athymic mice

## COc1cc2c(cc1OC)CN(CCc1ccc(NC(=O)c3cccc(/C=c4\[nH]c(=O)/c(=C/c5ccccc5)n(C)c4=O)c3)cc1)CC2 [XR9051, N-(4-(2-(6,7-dimethoxy-1,2,3,4-tetrahydro-2-isoquinolyl)ethyl)phenyl)-3-((3Z,6Z)-6-benzylidene-1-methyl-2,5-dioxo-3-piperazinylidene)methylbenzamide]
[1]; XR9051 40 mg kg-1 with epirubicin, compared with sensitive 2780 tumours (Plumb et al, 1994)
  extent of reversal of resistance: full reversal of resistance
[1]; XR9051 i.p. 20-40 mg kg-1 2 h before and after epirubicin 10 mg kg-1 i.v., P < 0.01, dose related
  tumour growth rate compared with either drug alone: significantly reduced growth rate
[2]
  concentration that fully reverses resistance to a range of cytotoxic drugs in vitro: 300 to 500 nM
[3]
  enhancement of sensitivity of MC26 cells to doxorubicin: three-fold
[4]; XR9051 alone, pilot experiments
  tumour growth inhibition, XR9051 alone: no significant inhibitory activity
[4]; XR9051 i.p. 20 mg kg-1 at 0 and 4 h with doxorubicin 5 mg kg i.v. at 1 h
  tumour growth on day 14 compared to cytotoxic drug alone: significant (P < 0.001) inhibition of tumour growth
[4]; XR9051 i.p. or p.o. with doxorubicin
  body weight gain between the various groups: no differences in body weight gain
[4]; XR9051 p.o. 40 mg kg-1 at 0 and 4 h with doxorubicin 5 mg kg i.v. at 1 h
  tumour growth on day 14 compared to cytotoxic drug alone: significant (P < 0.001) inhibition of tumour growth
[5]; athymic, mouse, tumour (H69/LX4 SCLC xenograft), iv, single i.v. 20 mg kg-1, H69/LX4 tumour, read-out: AUC0- in tumour tissue
  AUC: 57100 ng·h/mL
[5]; athymic, mouse, tumour (H69/LX4 SCLC xenograft), iv, single i.v. 20 mg kg-1, H69/LX4 tumour, read-out: apparent elimination half-life in tumour tissue (converted)
  half-life: 8.79 h
[5]; athymic, mouse, tumour (H69/LX4 SCLC xenograft), iv, single i.v. 20 mg kg-1, H69/LX4 tumour, read-out: time of maximum concentration in tumour tissue
  Tmax: 1.5 h
[5]; single i.v. 20 mg kg-1, 25 h period
  concentrations in H69/LX4 MDR tumours over a 25 h period: 0.6-9.4
[5]; [14]
  maximum concentration in tumour tissue: 6.94
  maximum concentration in tumour tissue (molar): 9.4
[6]; XR9051 40 mg kg-1 i.p. or p.o. with doxorubicin (2 mg kg-1), P < 0.01
  potentiation of anti-tumour activity of doxorubicin: significantly potentiated the anti-tumour activity
[6]; XR9051 40 mg kg-1 i.p. or p.o. with vincristine 0.5 mg kg-1 i.p., P < 0.01
  potentiation of anti-tumour activity of vincristine: significantly potentiated the anti-tumour activity
[6]; XR9051 with vincristine or doxorubicin
  tolerability of combination schedules: well-tolerated
[7]; Balb/c, oral, p.o. 50 mg kg-1 vs i.v., mice
  bioavailability: ~46%
[7]; po, p.o. 50 mg kg-1, Balb/c mice
  Tmax: ~3.4 h
[7]; po, p.o. 50 mg kg-1, Balb/c mice, read-out: AUC0-24 h
  AUC(0-t): 13500 ng·h/mL
[7]; po, p.o. 50 mg kg-1, Balb/c mice, read-out: Cmax in plasma
  Cmax: 1300 ng/mL
[7]; po, p.o. 50 mg kg-1, Balb/c mice, read-out: Cmax in plasma (molar)
  Cmax: 1800 nM
[8]; P388/P-sensitive cells implanted i.p.
  survival time: 12 days
[8]; XR9051 20 or 40 mg kg-1 i.v. with vincristine or doxorubicin
  lifespan of sensitive tumour-bearing animals, co-administration with cytotoxic drug: did not further increase the lifespan
[9]; XR9051 alone by any route, mice bearing sensitive or resistant tumours
  survival, modulator alone: no effect on survival
[9]; XR9051 i.p. 5, 10 and 20 mg kg-1 with vincristine 0.1 mg kg-1 i.p., dose-dependent (data not shown)
  lifespan of resistant tumour-bearing animals: increase in lifespan
[9]; XR9051 i.v. 10, 20 or 40 mg kg-1 1 h before vincristine 0.1 mg kg-1 i.p.
  survival of resistant leukaemia-bearing mice, combination vs cytotoxic drug alone: significantly increased survival
[9]; XR9051 p.o. 60, 80 or 120 mg kg-1 1 h before vincristine 0.1 mg kg-1 i.p.
  survival of resistant leukaemia-bearing mice, combination vs cytotoxic drug alone: significantly increased survival
[9]; XR9051 with vincristine or doxorubicin (data not shown)
  toxicity of combination therapy as assessed by body weight loss: no significant increase in toxicity
[9]; xenograft and murine tumour models
  oral potency relative to i.v. administration: two- to three-fold less
[10]; i.v., between 20 and 100 mg kg-1 doses (data not shown)
  linearity of intravenous pharmacokinetic parameters: linear
[10]; mouse, in vivo, iv, single i.v. 20 mg kg-1, Balb/c mice, read-out: steady-state volume of distribution
  Vd: 9.6 L/kg
[10]; mouse, iv, single i.v. 20 mg kg-1, Balb/c mice, brain, read-out: ratio between AUC for tissue:plasma, brain
  Kp: 0.3
[10]; mouse, iv, single i.v. 20 mg kg-1, Balb/c mice, heart, read-out: ratio between AUC for tissue:plasma, heart
  Kp: 16.9
[10]; mouse, iv, single i.v. 20 mg kg-1, Balb/c mice, liver, read-out: ratio between AUC for tissue:plasma, liver
  Kp: 79.6
[10]; mouse, iv, single i.v. 20 mg kg-1, Balb/c mice, plasma, read-out: AUC from time 0- for plasma
  AUC: 11900 ng·h/mL
[10]; mouse, iv, single i.v. 20 mg kg-1, Balb/c mice, brain, read-out: apparent elimination half-life in brain (converted)
  half-life: 1.15 h
[10]; mouse, iv, single i.v. 20 mg kg-1, Balb/c mice, heart, read-out: apparent elimination half-life in heart (converted)
  half-life: 2 h
[10]; mouse, iv, single i.v. 20 mg kg-1, Balb/c mice, liver, read-out: apparent elimination half-life in liver (converted)
  half-life: 4.93 h
[10]; mouse, iv, single i.v. 20 mg kg-1, Balb/c mice, plasma, read-out: apparent elimination half-life in plasma (converted)
  half-life: 3.96 h
[11]; XR9051 10 mg kg-1 i.v. with Paclitaxel 20 mg kg-1 i.p., days 0, 2 and 4
  tumour growth rate compared with either drug alone: significantly reduced tumour growth rate
[11]; XR9051 20 mg kg-1 i.v. with etoposide 30 mg kg-1 i.p., days 0, 5 and 11
  tumour growth rate compared with either drug alone: significantly reduced tumour growth rate
[11]; XR9051 i.v. with Paclitaxel or etoposide (data not shown)
  tolerability of combination schedules as judged by changes in body weights: well-tolerated

## COc1cccc2c1C(=O)c1c(O)c3c(c(O)c1C2=O)C[C@@](O)(C(=O)CO)C[C@@H]3O[C@H]1C[C@H](N)[C@H](O)[C@H](C)O1 [doxorubicin, reference compound]
[8]
  lifespan of tumour-bearing animals vs vehicle alone: increased the lifespan
[9]
  survival, cytotoxic drug in the absence of XR9051: little or no effect on survival

## CC[C@]1(O)C[C@H]2CN(CCc3c([nH]c4ccccc34)[C@@](C(=O)OC)(c3cc4c(cc3OC)N(C=O)[C@H]3[C@@](O)(C(=O)OC)[C@H](OC(C)=O)[C@]5(CC)C=CCN6CC[C@]43[C@@H]65)C2)C1 [vincristine, reference compound]
[12]
  resistance factor of cell line to vincristine: 22 fold
[13]
  resistance factor of cell line to vincristine: 70 fold
[8]
  lifespan of tumour-bearing animals vs vehicle alone: increased the lifespan
[9]
  survival, cytotoxic drug in the absence of XR9051: little or no effect on survival
